Source: US10265692B2, “Ex vivo methods for predicting and confirming in vivo metabolism of pharmaceutically active compounds” (Empiriko Corporation, priority 2013, dated 2019)

How the values were obtained:
[1] = Furosemide oxidation by conventional method with octabromo tetrakis(2,6-dichlorophenyl)porphyrin Fe(III)Cl and hydrogen peroxide, with or without imidazole co-catalyst, metabolites by LC/MS-ESI; assay type: in vitro ADME; details: DMSO, H2O2, 24 hours; for furosemide metabolites produced, No Co-Catalyst: control without imidazole; for furosemide metabolites produced, Imidazole Co-Catalyst: with imidazole co-catalyst
Method: Furosemide API (12.5 mg, 0.0378 mmol) in DMSO (0.1 M) was added to octabromo tetrakis(2,6-dichlorophenyl)porphyrin Fe(III)Cl (0.6 mg, 0.000378 mmol), followed by imidazole (0.13 mg, 0.00189 mmol). Over a 1 hour period, 50% w/w hydrogen peroxide (6.44 uL, […]) was added dropwise. An additional amount of hydrogen peroxide was added after 2 hours. The reaction was monitored by LC and stopped after 24 hours.
A control reaction was run under the exact parameters as stated above, without the addition of imidazole as a co-catalyst.
Samples analyzed according to parameters in Example 1.

[2] = Ex vivo prediction of drug-to-drug interaction: microwave oxidation of drug mixtures with Octabromo tetrakis(2,6-dichlorophenyl)porphyrin Fe(III)Cl and sodium hypochlorite, metabolites by LC/MS; details: saxagliptin reacted in mixture with Metformin, porphyrin Fe(III)Cl catalyst, NaOCl
Method: Metformin and Saxagliptin Mixture Microwave Protocol: Metformin Hydrochloride (8.19 mg, 0.06341 mmol) in 1:0.25 mL acetonitrile:water was reacted with potassium carbonate (10.96 mg, 0.07926) and stirred at 40° C. for 30 minutes in a microwave tube. Saxagliptin API (20.0 mg, 0.06341 mmol) extracted using 40 mL 1:1 methanol:ethanol, filtered and concentrated in vacuo. The resulting solid taken up in 2:0.25 mL acetonitrile:water and transferred to microwave tube. Octabromo tetrakis(2,6-dichlorophenyl)porphyrin Fe(III)Cl (10.21 mg, 0.006341 mmol) then added, followed by sodium hypochlorite (156.6 uL, 0.3171 mmol). Reaction run in the microwave at 80° C. for 30 minutes (CC-03-149A).

furosemide metabolites produced, No Co-Catalyst [1]	furosemide metabolites produced, Imidazole Co-Catalyst [1]	Presence of Saxagliptin metabolites [2]	SMILES
Present	Present		NS(=O)(=O)c1cc2c(cc1Cl)N1CC(=O)C=CC1OC2=O (stereo not shown) [FUR1]
Present	Present		NS(=O)(=O)c1cc(C(=O)[O-])c(-[n+]2cccc(O)c2)cc1Cl [FUR2]
Present	Present		Nc1cc(Cl)c(S(N)(=O)=O)cc1C(=O)O [FUR3]
	Present		NS(=O)(=O)c1cc2c(cc1Cl)[N+]1(O)CC(=O)C(O)C(=O)C1OC2=O (stereo not shown) [FUR4]
	Present		NS(=O)(=O)c1cc2c(cc1Cl)[N+]1([O-])CC(=O)C=CC1OC2=O (stereo not shown) [FUR5]
	Present		NS(=O)(=O)c1cc(C(=O)O)c(NCC(=O)CCC(=O)O)cc1Cl [FUR6]
		Not Detected	N#C[C@@H]1C[C@@H]2C[C@@H]2N1C(=O)C(N)C12CC3CC(O)(CC(O)(C3)C1)C2 (stereo partly shown) [Hydroxy-Saxagliptin]
